Results on seven compounds are retold here after patent publication US20110152332A1, “Pesticidal Heterocyclic Compounds” (Bayer CropScience AG, priority 2009, published 2011).

What all share (type): in vivo
For series [1], the system named is Tobacco cutworm (Spodoptera litura) larvae. Nature of the series: Test against tobacco cutworm (Spodoptera litura) larvae, leaf dip. As to conditions: active compound concentration 100 ppm; third instar larvae on dipped sweet potato leaves; after 7 days. As for the experimental part:
(§1) Unless described otherwise, the test solutions were prepared as follows:
(§2) The active compound, 1 part by weight of the active compound was admixed with the solvent in the above described amount which contains the emulsifying agent in the above described amount. The mixture was then diluted with water to specific concentration.
(§3) In order to prepare the test solution containing the active compound, 1 part by weight of the active compound was admixed with 3 parts by weight of the solvent dimethyl formamide which contains 1 part by weight of the emulsifying agent polyoxyethylene alkylphenyl ether. This mixture is then diluted with water to the specific concentration.
(§4) Solvent: dimethyl formamide, 3 parts by weight; emulsifying agent: polyoxyethylene alkylphenyl ether, 1 part by weight
Leaves of sweet potato were immersed in the test solution at the appropriate concentration, and the leaves were dried in air. The leaves were then placed in a petri dish having a diameter of 9 cm, and ten Spodoptera litura at third instar larvae were released therein. The petri dishes were placed in a temperature-controlled chamber at 25° C. After 2 days and 4 days more sweet potato leaves were added. After 7 days, the number of dead larvae was counted to calculate the insecticidal activity. An insecticidal activity of 100% means that all larvae were killed, whereas an insecticidal activity of 0% means that no larva was killed. In the current test, the results of two petri dishes for each treatment were averaged.

Series [2] concerns Cucurbit leaf beetle (Aulacophora femoralis). Nature of the series: Test against cucurbit leaf beetle (Aulacophora femoralis), leaf dip. As to conditions: active compound concentration 100 ppm; second instar larvae on dipped cucumber leaves; after 7 days. As for the experimental part:
as §1, §2, §3, §4
Leaves of cucumber were immersed in the test solution at the appropriate concentration, and the leaves were dried in air. The leaves were then put in a plastic cup containing sterilized black soil and five Aulacophora femoralis at second instar larvae were released in the cup. The cups were placed in a temperature-controlled chamber at 25° C. After 7 days, the number of dead larvae was counted, and thus the insecticidal activity was calculated. An insecticidal activity of 100% means that all larvae were killed, whereas an insecticidal activity of 0% means that no larva was killed.

In the next series the test system is Boophilus microplus. Nature of the series: Boophilus microplus (dip). The following applies: application rate 100 ppm; adult engorged female ticks dipped one minute; after 7 days. Here is the method:
Solvent: dimethylsulfoxid
To produce a suitable preparation of active compound, 10 mg of active compound are dissolved in 0.5 ml solvent, and the concentrate is diluted with water to the desired concentration. Eight to ten adult engorged female Boophilus microplus ticks are placed in perforated plastic beakers and immersed in aqueous compound solution for one minute. Ticks are transferred to a filter paper in a plastic tray. Egg deposition of fertile eggs is monitored after. After 7 days mortality in % is determined. 100% means that all the ticks have been killed; 0% means that none of the ticks have been killed.

Another series concerns Ctenocephalides felis. Description: Ctenocephalides felis-test (CTECFE). The following applies: application rate 100 ppm in cattle blood, adult unfed fleas, after 2 days. Here is the method: (§5) Solvent: dimethyl sulfoxide
To produce a suitable preparation of active compound, 10 mg of active compound are dissolved in 0.5 ml solvent, and the concentrate is diluted with cattle blood to the desired concentration. Approximately 20 adult unfed (Ctenocephalides felis) are placed in flea chambers. The blood chamber, sealed with parafilm on the bottom, are filled with cattle blood supplied with compound solution and placed on top of the flea chamber, so that the fleas are able to suck the blood. The blood chamber is heated to 37° C. whereas the flea chamber is kept at room temperature. After 2 days mortality in % is determined. 100% means that all the fleas have been killed; 0% means that none of the fleas have been killed.

Series [3] has as its system Two-spotted spider mite (Tetranychus urticae). Description: Test against two-spotted spider mite (Tetranychus urticae), spray. The following applies: active compound concentration 100 ppm; adult mites on kidney bean, sprayed; after 7 days. As for the experimental part: as §1, §2, §3, §4
50 to 100 adult mites of Tetranychus urticae were inoculated to leaves of kidney bean at two-leaf stage planted in a pot of 6 cm in diameter. After one day, test solution at the appropriate concentration was sprayed thereon in a sufficient amount using a spray gun. After the spraying, the plant pot was placed inside a greenhouse, and after 7 days, the acaricidal activity was calculated. An acaricidal activity of 100% means that all mites were killed, whereas an acaricidal activity of 0% means that no mite was killed.

In series [4] the test system is Lucilia cuprina 1st instar larvae. Description: Lucilia cuprina-test (LUCICU 48 h). As to conditions: application rate 100 ppm, 1st instar larvae on minced horse meat, after 2 days, read-out: activity (percentage of larval mortality). As for the experimental part: Species: Lucilia cuprina 1st instar larvae (age 24 hrs)
as §5
10 mg active compound are dissolve in 0.5 ml Dimethylsulfoxid. Serial dilutions are made to obtain the desired rates. Approximately 20 Lucilia cuprina 1st instar larvae are transferred into a test tube containing 1 cm^3 of minced horse meat and 0.5 ml aqueous dilution of test compound. After 2 days percentage of larval mortality are recorded. 100% efficacy=all larvae are killed, […].

Another series deals with Musca domestica. Description: Musca domestica-test. As to conditions: application rate 100 ppm, adults, sugar/compound soaked sponge, after 2 days. As for the experimental part:
as §5
To produce a suitable preparation of active compound, 10 mg of active compound are dissolved in 0.5 ml solvent, and the concentrate is diluted with water to the desired concentration. Prior to the assay, a piece of kitchen sponge is soaked with a mixture of sugar and compound solution and placed into a container. 10 adults (Musca domestica) are placed into the container and closed with a perforated lid. After 2 days mortality in % is determined. 100% means that all the flies have been killed; 0% means that none of the flies have been killed.

`CC(=O)NCc1ccc(N2CC(c3cc(Cl)cc(Cl)c3)(C(F)(F)F)OC2=O)cc1C(F)(F)F` (centres unmarked) [Compound 1-2]: the insecticidal activity in series [1] and in series [2] was 100% in each case. The results for the “activity (mortality in %)” value in the series with Boophilus microplus and in the series on Ctenocephalides felis were 80% and 95%, respectively.
As for `CCC(=O)NCc1ccc(N2CC(c3cc(Cl)cc(Cl)c3)(C(F)(F)F)OC2=O)cc1C(F)(F)F` (centres unmarked) [Compound 1-3, N-{4-[5-(3,5-dichlorophenyl)-2-oxo-5-(trifluoromethyl)-1,3-oxazolin-3-yl]-2-(trifluoromethyl)benzyl}propane amide], the insecticidal activity in series [1] and in series [2] was 100% each time. In series [3], this compound yielded an acaricidal activity of 100%. Also, the mortality at 100 ppm in series [4] is 100%; with Ctenocephalides felis (Ctenocephalides felis, 48 h) it was 95%; with Musca domestica (Musca domestica, 48 h), 100%.
With `CC(=O)NCc1ccc(N2CC(c3cc(Cl)c(Cl)c(Cl)c3)(C(F)(F)F)OC2=O)cc1C(F)(F)F` (centres unmarked) [Compound 1-16], the insecticidal activity in series [1] and in series [2] was 100% each time. The acaricidal activity in series [3] is reported as 100%. Further, the “activity (mortality in %)” value in the series with Boophilus microplus came to 80%; in the series on Musca domestica it was 90%.
`CCC(=O)NCc1ccc(N2CC(c3cc(Cl)c(Cl)c(Cl)c3)(C(F)(F)F)OC2=O)cc1C(F)(F)F` (centres unmarked) [Compound 1-17]: the insecticidal activity in series [1] and in series [2] was 100% in each case. In series [3], the acaricidal activity is 100%. In addition, the results for the “activity (mortality in %)” value in the series on Boophilus microplus and in the series with Musca domestica were 100% and 90%, respectively.
Turning to `CCC(=O)NCc1ccc(N2CC(c3cccc(C(F)(F)F)c3)(C(F)(F)F)OC2=O)cc1C(F)(F)F` (centres unmarked) [Compound 1-73], the insecticidal activity in series [1] and in series [2] was 100% in each case. Also, in the series on Musca domestica, the “activity (mortality in %)” value is on record as 80%.
For the compound `O=C(NCc1ccc(N2CC(c3cc(C(F)(F)F)cc(C(F)(F)F)c3)(C(F)(F)F)OC2=O)cc1Cl)C1CC1` (centres unmarked) [Compound 1-145], the insecticidal activity in series [1] and in series [2] was 100% throughout. Also, in series [3], the acaricidal activity was 100%. The “activity (mortality in %)” value with Ctenocephalides felis came out at 95%; in the series with Musca domestica, 80%.
Regarding `Cc1cc(N2CC(c3cc(C(F)(F)F)cc(C(F)(F)F)c3)(C(F)(F)F)OC2=O)ccc1CNC(=O)C1CC1` (centres unmarked) [Compound 1-159], the insecticidal activity in series [1] and in series [2] was 100% throughout. Also, the “activity (mortality in %)” value with Ctenocephalides felis is 95%; in the series with Musca domestica, 90%.
